The values below come from PMC5908784, “Extracellular loops 2 and 3 of the calcitonin receptor selectively modify agonist binding and efficacy” (Biochemical Pharmacology, 2018).

Holding throughout (format): cell-based
One test addresses T1, hCTR N288A (Homo sapiens, UniProt P30988, N288A).
T1 construct: expressed in transfected cells
T1 sequence (P30988 25-474 N288A): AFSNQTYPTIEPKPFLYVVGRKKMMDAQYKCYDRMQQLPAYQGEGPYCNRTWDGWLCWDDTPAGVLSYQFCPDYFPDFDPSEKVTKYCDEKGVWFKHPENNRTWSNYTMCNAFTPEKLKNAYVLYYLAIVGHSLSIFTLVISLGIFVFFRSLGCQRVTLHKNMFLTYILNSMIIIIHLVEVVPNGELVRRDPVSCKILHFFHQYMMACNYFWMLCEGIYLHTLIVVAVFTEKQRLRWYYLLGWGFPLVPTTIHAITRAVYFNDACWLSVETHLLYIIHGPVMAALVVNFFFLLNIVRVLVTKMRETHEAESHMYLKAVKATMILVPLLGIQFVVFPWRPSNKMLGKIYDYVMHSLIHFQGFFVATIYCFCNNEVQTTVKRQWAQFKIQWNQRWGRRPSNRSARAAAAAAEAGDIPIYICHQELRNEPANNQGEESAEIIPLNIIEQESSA
As to the kind of experiment: IP1 accumulation. The conditions noted are these: mean ± S.E.M.; for Emax: IP1 maximal response, SEM. As to the method: (§1) Cells (2.5 × 10^4 cells/well) were plated into 96 well trays and cultured overnight. Cells were stimulated with increasing concentration of ligands for 60 min in the presence of LiCl. Samples were lysed and endogenous IP1 was measured using an IP-One HTRF® assay kit (CisBio) as specified by the manufacturer. Data were normalized to the maximal response elicited by 100 μM of ATP.
(§2) Data were corrected for radioligand occupancy using the Cheng-Prusoff equation in Prism; as such data are reported as pKi. Emax and EC50 were estimated from concentration-response curves using with a 3-parameter logistic equation in Prism (v7). These values are a composite of functional affinity, efficacy and stimulus response coupling. […] Significance was accepted at P < 0.05.

The target in another test is T2, hCTR Y372A (Homo sapiens, UniProt P30988, Y372A).
T2 construct: c-Myc (N); expressed in transfected cells
T2 sequence (P30988 25-474 Y372A): T1 sequence (P30988 25-474 N288A) with A264N, Y348A
Briefly: IP1 accumulation. The conditions noted are these: mean ± S.E.M.; for Emax: IP1 maximal response, SEM. As to the method: as §1, §2

The next test deals with T3, hCTR L291A (Homo sapiens, UniProt P30988, L291A).
T3 construct: expressed in transfected cells
T3 sequence (P30988 25-474 L291A): T1 sequence (P30988 25-474 N288A) with A264N, L267A
As to the kind of experiment: IP1 accumulation. The following applies: mean ± S.E.M.; for Emax: IP1 maximal response, SEM. As to the method:
as §1, §2

The target in the next test is T4, hCTR H296A (Homo sapiens, UniProt P30988, H296A).
T4 construct: c-Myc (N); expressed in transfected cells
T4 sequence (P30988 25-474 H296A): T1 sequence (P30988 25-474 N288A) with A264N, H272A
As to the kind of experiment: ERK1/2 phosphorylation. The conditions noted are these: CV1-FlpIn cells, mean ± S.E.M.; for Emax: pERK maximal response; for EC50: pERK, three-parameter logistic fit. An outline of the steps: (§3)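 Cells were seeded at 2.5 × 10^4 cells/well and cultured overnight before stimulation. ERK1/2 phosphorylation was normalized to the maximal response to 10% FBS measured at 6 min. EC50 and Emax came from a 3-parameter logistic fit of concentration-response curves.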

A further test has as its target T5, hCTR S292A (Homo sapiens, UniProt P30988, S292A).
T5 construct: expressed in transfected cells
T5 sequence (P30988 25-474 S292A): T1 sequence (P30988 25-474 N288A) with A264N, S268A
Briefly: ERK1/2 phosphorylation. The conditions noted are these: CV1-FlpIn cells, mean ± S.E.M.; for Emax: pERK maximal response; for EC50: pERK, three-parameter logistic fit. In a few lines:
as §3

The mark [1] stands for this setting: IP1, CV1-FlpIn cells, 60 min, LiCl.

As a reminder, the Emax is the greatest response seen or fitted, relative to the assay's reference. Usually EC50 stands for the midpoint of the concentration-response curve.

Numbering of substitutions follows the chain as printed. Where a SMILES comes first, the peptide text is derived from it. Bridges are numbered along the chain shown (N, C = ends).

For the molecule `CC[C@H](C)[C@H](NC(=O)[C@H](C)NC(=O)[C@@H](NC(=O)[C@H](CCC(N)=O)NC(=O)[C@@H]1CCCN1C(=O)[C@H](Cc1ccccc1)NC(=O)[C@@H](NC(=O)[C@H](Cc1c[nH]cn1)NC(=O)[C@H](Cc1ccccc1)NC(=O)[C@H](CCCCN)NC(=O)[C@H](CC(N)=O)NC(=O)[C@H](Cc1ccccc1)NC(=O)[C@H](CC(=O)O)NC(=O)[C@H](CCC(N)=O)NC(=O)[C@@H](NC(=O)[C@H](Cc1ccc(O)cc1)NC(=O)[C@@H](NC(=O)CNC(=O)[C@H](CC(C)C)NC(=O)[C@H](CCSC)NC(=O)[C@@H]1CSSC[C@H](N)C(=O)NCC(=O)N[C@@H](CC(N)=O)C(=O)N[C@@H](CC(C)C)C(=O)N[C@@H](CO)C(=O)N[C@@H]([C@@H](C)O)C(=O)N1)[C@@H](C)O)[C@@H](C)O)[C@@H](C)O)[C@@H](C)O)C(=O)NCC(=O)N[C@H](C(=O)NCC(=O)N[C@@H](C)C(=O)N1CCC[C@H]1C(N)=O)C(C)C` [hCT], the Emax on hCTR N288A was found to be 91 ± 8%; at hCTR Y372A, 68 ± 9%; at hCTR L291A it was 71 ± 16%; on hCTR H296A, 148 ± 8%; on hCTR S292A, 116 ± 11%.

Take `CC(C)C[C@H](NC(=O)CNC(=O)[C@H](C)NC(=O)[C@H](CC(C)C)NC(=O)[C@H](CCCNC(=N)N)NC(=O)[C@H](Cc1cnc[nH]1)NC(=O)[C@@H](NC(=O)[C@@H](NC(=O)[C@@H]1CSSC[C@H](NC(=O)[C@H](C)N)C(=O)N[C@@H](CC(=O)O)C(=O)N[C@@H]([C@@H](C)O)C(=O)N[C@@H](C)C(=O)N[C@@H]([C@@H](C)O)C(=O)N1)C(C)C)[C@@H](C)O)C(=O)N[C@@H](CC(C)C)C(=O)N[C@@H](CO)C(=O)N[C@@H](CCCNC(=N)N)C(=O)N[C@@H](CO)C(=O)NCC(=O)NCC(=O)N[C@H](C(=O)N[C@H](C(=O)N[C@@H](CCCCN)C(=O)N[C@@H](CC(N)=O)C(=O)N[C@@H](CC(N)=O)C(=O)N[C@@H](Cc1ccccc1)C(=O)N[C@H](C(=O)N1CCC[C@H]1C(=O)N[C@H](C(=O)N[C@@H](CC(N)=O)C(=O)N[C@H](C(=O)NCC(=O)N[C@@H](CO)C(=O)N[C@@H](CCCCN)C(=O)N[C@@H](C)C(=O)N[C@@H](Cc1ccccc1)C(N)=O)C(C)C)[C@@H](C)O)C(C)C)C(C)C)C(C)C` [hαCGRP]: on hCTR H296A, the Emax worked out at 77 ± 11% and a half-maximal effect (EC50) was put at 91.2 nM. At hCTR S292A, the Emax amounted to 80 ± 12% and the EC50 is 20.9 nM.

For the molecule `CSCC[C@H](NC(=O)CNC(=O)[C@H](CO)NC(=O)[C@H](Cc1ccccc1)NC(=O)[C@H](CCCNC(=N)N)NC(=O)[C@H](Cc1c[nH]cn1)NC(=O)[C@H](Cc1ccccc1)NC(=O)[C@H](CC(N)=O)NC(=O)[C@H](CC(N)=O)NC(=O)[C@H](CC(C)C)NC(=O)[C@H](CC(N)=O)NC(=O)[C@H](CCCNC(=N)N)NC(=O)[C@H](Cc1c[nH]c2ccccc12)NC(=O)[C@H](Cc1ccc(O)cc1)NC(=O)[C@H](C)NC(=O)[C@H](CO)NC(=O)[C@H](CC(C)C)NC(=O)[C@@H](NC(=O)[C@@H]1CSSC[C@H](N)C(=O)N[C@@H](CO)C(=O)N[C@@H](CC(N)=O)C(=O)N[C@@H](CC(C)C)C(=O)N[C@@H](CO)C(=O)N[C@@H]([C@@H](C)O)C(=O)N1)C(C)C)C(=O)NCC(=O)N[C@@H](Cc1ccccc1)C(=O)NCC(=O)N1CCC[C@H]1C(=O)N[C@@H](CCC(=O)O)C(=O)N[C@H](C(=O)N1CCC[C@H]1C(N)=O)[C@@H](C)O` [pCT] (H-CSNLSTCVLSAYWRNLNNFHRFSGMGFGPETP-NH2; disulfide 1-7), the EC50 was 1.91 nM on hCTR N288A (setting [1]); 2.88 nM at hCTR Y372A (setting [1]); 1.62 nM at hCTR L291A (setting [1]); 2.34 nM on hCTR H296A; 0.55 nM on hCTR S292A. Further, the Emax on hCTR N288A turned out to be 93 ± 7%; at hCTR Y372A, 44 ± 5%; on hCTR L291A it was 67 ± 6%; at hCTR H296A, 163 ± 10%; at hCTR S292A, 104 ± 7%.

As for `CC(C)C[C@H](NC(=O)[C@H](CC(N)=O)NC(=O)[C@H](CC(N)=O)NC(=O)[C@H](CO)NC(=O)[C@H](CO)NC(=O)[C@H](CCCNC(=N)N)NC(=O)[C@@H](NC(=O)[C@H](CC(C)C)NC(=O)[C@H](Cc1ccccc1)NC(=O)[C@H](CC(N)=O)NC(=O)[C@H](C)NC(=O)[C@H](CC(C)C)NC(=O)[C@H](CCCNC(=N)N)NC(=O)[C@H](CCC(N)=O)NC(=O)[C@@H](NC(=O)[C@H](C)NC(=O)[C@@H]1CSSC[C@H](NC(=O)[C@@H](N)CCCCN)C(=O)N[C@@H](CC(N)=O)C(=O)N[C@@H]([C@@H](C)O)C(=O)N[C@@H](C)C(=O)N[C@@H]([C@@H](C)O)C(=O)N1)[C@@H](C)O)C(C)C)C(=O)NCC(=O)N1CCC[C@H]1C(=O)N[C@H](C(=O)N[C@@H](CC(C)C)C(=O)N1CCC[C@H]1C(=O)N1CCC[C@H]1C(=O)N[C@H](C(=O)N[C@@H](CC(N)=O)C(=O)N[C@H](C(=O)NCC(=O)N[C@@H](CO)C(=O)N[C@@H](CC(N)=O)C(=O)N[C@H](C(=O)N[C@@H](Cc1ccc(O)cc1)C(N)=O)[C@@H](C)O)C(C)C)[C@@H](C)O)C(C)C` [rAmy], the figures for the maximum response (Emax) at hCTR H296A and at hCTR S292A were 82 ± 8% and 96 ± 12%, respectively.
